Two compounds from patent US11612553B2, “Oral care product and methods of use and manufacture thereof” (Colgate-Palmolive Company, priority 2008, dated 2023) can be followed below.

This assay relates to S. sanguis. Briefly: Ammonia production by S. sanguis at pH 4.0. It counts as cell-based. To be noted: mean of 6 trials; 5 millimolar amino acid, pH 4.0, 0.1% sucrose, 37° C., 30 minutes. How it is done:
An overnight culture of S. sanguis was grown at 37° C. in trypticase soy broth (Becton Dickinson, Sparks, Md.). The culture was centrifuged at 5,000 rpm for 5 minutes at 1 milliliter at a time into preweighed tubes in order to accumulate approximately 5 milligrams of wet pellet weight. The pellet was then resuspended into 20 millimolar potassium phosphate buffer (JT Baker, Phillipsburg, N.J.), pH 4.0, to simulate a stressed environment for the bacterial cell where ammonia would be produced for survival. The final concentration was 5 milligram per milliliter. To this final concentration, a 5 millimolar final concentration of L-arginine, L-citrulline, or L-ornithine was added along with a 0.1% final concentration of sucrose (VWR, West Chester, Pa.). This mixture was then incubated at 37° C. in a shaking water bath for 30 minutes before ammonia production was determined.
In order to analyze for ammonia, an Ammonia Assay kit was used from Diagnostic Chemicals Limited (Oxford, Conn.). The intended use of this specific kit is for the in vitro quantification of ammonia in plasma, but the procedure was modified in order to determine and quantify the ammonia production in plaque and/or bacteria.

In the case of `N=C(N)NCCC[C@H](N)C(=O)O` [L-Arginine, L-arginine], the “Ammonia, Mean” value came out at 1.06 ppm.

With `NC(=O)NCCC[C@H](N)C(=O)O` [L-Citrulline, L-citrulline], the “Ammonia, Mean” value came to 0.951 ppm.
